Measured values from PubChem BioAssay AID248 (DTP/NCI, 2004).
Inconclusive results and toxic doses are left out. Rule as the data show it: active = T/C of 150% or more; inactive = T/C below 125%.

System: L1210 leukemia ip in BDF1 mice, survival T/C
Assay: NCI In Vivo Anticancer Drug Screen. Data for tumor model L1210 Leukemia (intraperitoneal) in B6D2F1 (BDF1) mice
Conditions: endpoint: mean survival time, higher = longer survival
In short: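 Transplantable tumor model; survival measured in treated vs vehicle control mice. Value = treated/control.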

[1] = dose: 100.0 mg/kg/injection, schedule: Q04DX003 (ip), vehicle: saline with Tween-80
[2] = dose: 200.0 mg/kg/injection, schedule: Q04DX003 (ip), vehicle: saline with Tween-80
[3] = dose: 400.0 mg/kg/injection, schedule: Q04DX003 (ip), vehicle: saline with Tween-80
[4] = dose: 100.0 mg/kg/injection, schedule: Q01DX009 (ip), vehicle: saline with Tween-80
[5] = dose: 200.0 mg/kg/injection, schedule: Q01DX009 (ip), vehicle: saline with Tween-80
[6] = dose: 100.0 mg/kg/injection, schedule: Q01DX001 (ip), vehicle: saline
[7] = dose: 400.0 mg/kg/injection, schedule: Q01DX001 (ip), vehicle: saline
[8] = dose: 25.0 mg/kg/injection, schedule: Q01DX009 (ip), vehicle: Klucel (hydroxypropylcellulose) (HPC)
[9] = dose: 100.0 mg/kg/injection, schedule: Q01DX009 (ip), vehicle: Klucel (hydroxypropylcellulose) (HPC)
[10] = dose: 200.0 mg/kg/injection, schedule: Q01DX009 (ip), vehicle: Klucel (hydroxypropylcellulose) (HPC)
[11] = dose: 400.0 mg/kg/injection, schedule: Q01DX009 (ip), vehicle: Klucel (hydroxypropylcellulose) (HPC)
[12] = dose: 100.0 mg/kg/injection, schedule: Q04DX003 (ip), vehicle: saline
[13] = dose: 200.0 mg/kg/injection, schedule: Q01DX001 (ip), vehicle: carboxymethylcellulose (CMC)

Measured: T/C

NNC(=O)c1cccc([N+](=O)[O-])c1
inactive: dose: 12.5 mg/kg/injection, schedule: Q04DX003 (ip), vehicle: Klucel (hydroxypropylcellulose) (HPC) 100 % of control | dose: 25.0 mg/kg/injection, schedule: Q04DX003 (ip), vehicle: Klucel (hydroxypropylcellulose) (HPC) 96 % of control

CCCCCCCCCCCCCCCCCCCCCCCC(=O)NCCc1c[nH]c2ccc(O)cc12 (tested in a mixture with another compound)
inactive: [1] 96 % of control | [2] 96 % of control | [3] 86 % of control

O=C(NCCCl)NC1C2CC3CC(C2)CC1C3 (centres undefined)
inactive: dose: 75.0 mg/kg/injection, schedule: Q01DX001 (ip), vehicle: other 93 % of control | dose: 150.0 mg/kg/injection, schedule: Q01DX001 (ip), vehicle: other 89 % of control | dose: 300.0 mg/kg/injection, schedule: Q01DX001 (ip), vehicle: other 89 % of control

CCC(=O)c1ccc(OC(=O)Nc2ccc(C)c(NC(=O)Oc3ccc(C(=O)CC)cc3)c2)cc1
inactive: dose: 100.0 mg/kg/injection, schedule: Q01DX009 (ip), vehicle: other 107 % of control | dose: 200.0 mg/kg/injection, schedule: Q01DX009 (ip), vehicle: other 100 % of control

CC(=O)OC1C=CCC2C(=O)c3c(c(O)c4ccccc4c3O)C(=O)C12 (centres undefined)
inactive: [4] 95 % of control | [1] 95 % of control | [5] 105 % of control | [2] 95 % of control | dose: 400.0 mg/kg/injection, schedule: Q01DX009 (ip), vehicle: saline with Tween-80 100 % of control | [3] 90 % of control

CCCCOP(=O)(/C=C/c1ccccc1)OCCCC
inactive: dose: 100.0 mg/kg/injection, schedule: Q04DX002 (ip), vehicle: saline with Tween-80 122 % of control | dose: 200.0 mg/kg/injection, schedule: Q04DX002 (ip), vehicle: saline with Tween-80 91 % of control

c1cc2cc(c1)CCc1cccc(c1)CC2
inactive: [6] 100 % of control | dose: 200.0 mg/kg/injection, schedule: Q01DX001 (ip), vehicle: saline 106 % of control | [7] 94 % of control

CCCCOP(=O)(O)OCCCC.[Cd]
inactive: dose: 3.0 mg/kg/injection, schedule: Q01DX009 (ip), vehicle: Klucel (hydroxypropylcellulose) (HPC) 96 % of control | dose: 6.0 mg/kg/injection, schedule: Q01DX009 (ip), vehicle: Klucel (hydroxypropylcellulose) (HPC) 96 % of control | dose: 12.0 mg/kg/injection, schedule: Q01DX009 (ip), vehicle: Klucel (hydroxypropylcellulose) (HPC) 95 % of control | dose: 12.5 mg/kg/injection, schedule: Q01DX009 (ip), vehicle: Klucel (hydroxypropylcellulose) (HPC) 96 % of control | [8] 94 % of control

O=C(OCC#CC#CCOC(=O)c1cccc2ccccc12)c1cccc2ccccc12
inactive: [9] 93 % of control | [10] 89 % of control | [11] 93 % of control

CCOC(=O)C(C)(C)OC(=O)Nc1ccccc1
inactive: dose: 100.0 mg/kg/injection, schedule: Q04DX003 (ip), vehicle: Klucel (hydroxypropylcellulose) (HPC) 98 % of control | dose: 200.0 mg/kg/injection, schedule: Q04DX003 (ip), vehicle: Klucel (hydroxypropylcellulose) (HPC) 91 % of control | dose: 400.0 mg/kg/injection, schedule: Q04DX003 (ip), vehicle: Klucel (hydroxypropylcellulose) (HPC) 98 % of control

COCCN=C(NCCOC)c1ccc(Nc2ncnc3nc[nH]c23)cc1
inactive: dose: 50.0 mg/kg/injection, schedule: Q04DX003 (ip), vehicle: saline 102 % of control | [12] 95 % of control

O=c1c2ccccc2ncn1CCCBr
inactive: dose: 75.0 mg/kg/injection, schedule: Q01DX009 (ip), vehicle: saline 95 % of control | dose: 150.0 mg/kg/injection, schedule: Q01DX009 (ip), vehicle: saline 103 % of control | dose: 300.0 mg/kg/injection, schedule: Q01DX009 (ip), vehicle: saline 95 % of control

BrCCCCCCCCCCC1(c2ccccc2)OCCO1
inactive: [9] 107 % of control | [10] 98 % of control | [11] 93 % of control

CCCCCCCCCCCCCCCCCC(=O)N/N=C/c1cc(OC)ccc1OC
inactive: [9] 89 % of control | [10] 86 % of control | [11] 96 % of control

Cc1cc(-c2ccccc2)c2ccccc2c1N(CC(=O)O)S(=O)(=O)c1ccccc1
inactive: [4] 105 % of control | [12] 98 % of control | [5] 93 % of control | dose: 200.0 mg/kg/injection, schedule: Q04DX003 (ip), vehicle: saline 104 % of control | dose: 400.0 mg/kg/injection, schedule: Q04DX003 (ip), vehicle: saline 102 % of control

O=C1CC(Sc2ccccc2)C(=O)N1c1ccccc1 (centres undefined)
inactive: [9] 104 % of control | [10] 100 % of control | [11] 107 % of control

CCCCCCCCCCCCCCCCCC(=O)NCC#CCN1CCCC1
inactive: dose: 5.0 mg/kg/injection, schedule: Q01DX001 (ip), vehicle: saline 97 % of control | dose: 10.0 mg/kg/injection, schedule: Q01DX001 (ip), vehicle: saline 94 % of control | dose: 20.0 mg/kg/injection, schedule: Q01DX001 (ip), vehicle: saline 100 % of control | [8] 96 % of control | dose: 40.0 mg/kg/injection, schedule: Q01DX001 (ip), vehicle: saline 105 % of control | dose: 50.0 mg/kg/injection, schedule: Q01DX009 (ip), vehicle: Klucel (hydroxypropylcellulose) (HPC) 95 % of control | dose: 80.0 mg/kg/injection, schedule: Q01DX001 (ip), vehicle: saline 94 % of control | [9] 90 % of control | [7] 104 % of control

CCCCCCCCCCCCCCCC(=O)OCCCCCCCCCCC
inactive: [1] 100 % of control | [2] 92 % of control | [3] 101 % of control

CCN(CC)P(=O)(N1CC1(C)C)N1CC1(C)C (centres undefined)
inactive: dose: 88.0 mg/kg/injection, schedule: Q01DX001 (ip), vehicle: carboxymethylcellulose (CMC) 114 % of control | dose: 88.0 mg/kg/injection, schedule: Q01DX001 (ip), vehicle: saline 102 % of control | [6] 118 % of control | dose: 133.0 mg/kg/injection, schedule: Q01DX001 (ip), vehicle: carboxymethylcellulose (CMC) 118 % of control | dose: 133.0 mg/kg/injection, schedule: Q01DX001 (ip), vehicle: saline 107 % of control | [13] 114 % of control | dose: 300.0 mg/kg/injection, schedule: Q01DX001 (ip), vehicle: saline 115 % of control

CN(C)C1c2cc(Cl)ccc2-c2c(N)cc(Cl)cc21 (centres undefined)
inactive: dose: 50.0 mg/kg/injection, schedule: Q01DX001 (ip), vehicle: carboxymethylcellulose (CMC) 95 % of control | dose: 100.0 mg/kg/injection, schedule: Q01DX001 (ip), vehicle: carboxymethylcellulose (CMC) 98 % of control | [13] 98 % of control | dose: 400.0 mg/kg/injection, schedule: Q01DX001 (ip), vehicle: carboxymethylcellulose (CMC) 93 % of control
